“Also recorded” adds a separate entry of the source.
Assays:
steatotic hepatocytes = experiment: Defatting of steatotic cultured hepatocytes with defatting media; type: cell-based, rat; settings: for effect on the defatting process (fat reduction): agent added in high insulin containing media; for effect on the defatting process (lipid removal): agent added in low insulin-containing medium
Experimental: It has previously been shown that collagen-sandwiched adult rat hepatocytes which are seeded and maintained in standard hepatocyte culture medium and then exposed to either rat or human plasma become severely steatotic within 24 hours with a concomitant reduction in liver-specific functions (Matthew et al., Biotechnol. Bioeng. 51: 100-111, 1995; Stefanovich et al., J. Surg. Res. 66: 57-63, 1996).
In the next set of experiments, we induced steatosis in hepatocytes by exposing them to high insulin levels followed by plasma for 2 days, and attempted to defat them using the following conditions: plasma supplemented with amino acids and low insulin levels; culture medium containing high insulin ([…]); culture medium containing low insulin (50 μU/mL) levels. We then measured the fraction of remaining triglycerides after 1 and 2 days of treatment. […] The triglyceride removal kinetic data in Table 2 was used to calculate a defatting rate for each defatting condition. For this purpose, the fraction of initial triglyceride remaining was plotted as a function of time on a semi-log plot, which yielded linear curves (not shown). The slopes of these lines, which correspond to the first order rate of decay or triglyceride clearance from the cells during defatting, are shown in Table 2 for each defatting condition tested. From these values, we can predict the fraction of intracellular lipid remaining after any treatment time using the simple equation: Triglyceride Fraction Remaining=100e^−[RateConstant][TreatmentTime] (equation 1)

IFN-γ mRNA = experiment: RT-PCR of IFN-γ mRNA in purified liver T cells after transplantation; type: in vivo, rat; settings: 24 hours after transplantation; donor GdCl3 pretreatment
Experimental: (§1) Donor animals were divided into three groups; heat shock preconditioning (HPc) group, sham HPc (Sham) group, and gadolinium chloride (GdCl3) group. In the HPc group, rats were anesthetized and placed in a waterproof bag that was then immersed in a 43° C. water bath to elevate the core body temperature (measured via a rectal digital thermometer) to 42-42.5° C. Animals were maintained at that temperature for 10 min and then removed from the warm bath. Animals then received 10 ml/kg intraperitoneal saline injection and were allowed to recover with free access to food and water. Animals in the Sham and GdCl3 groups underwent the same procedures except that they were immersed in a 37° C. bath (sham HPc). In the GdCl3 group, Kupffer cell deactivation was achieved by two 20 mg/kg GdCl3 (Sigma, St. Louis, Mo.) intravenous injection 48 and 24 hours before donor liver harvesting. In the Sham and HPc groups, sterile nonpyrogenic saline was used as instead of GdCl3 solution. Donor livers were harvested 24 hours after HPc or sham HPc. In some experiments, rats were pretreated with 5 mg/kg i.m. Cyclosporine A (CyA; Sigma) 6 hours before donor liver harvesting.
Three hours or 24 hours after liver transplantation, transplanted liver were perfused with sterile PBS through the portal vein to wash out all remaining peripheral blood and then meshed with stainless steel mesh. […]

[1] = tested on: liver I/R injury in steatotic liver transplantation; experiment: Serum ALT after fatty liver transplantation; type: in vivo, rat; settings: donor GdCl3 pretreatment
Experimental: as §1
Isogenic orthotopic liver transplantation was performed as described by Kamada and Calne (Kamada et al., Transplantation 28:47-50, 1979). Donor livers were harvested 3, 6, 24, 48, or 72 hours after HPc. Briefly, the bile duct was cannulated with a short intraluminal polyethylene stent. […] The infrahepatic and suprahepatic vena cava, including part of the diaphragm, were transected. […] For survival studies, the animals were returned to standard housing facilities and monitored for up to one week. […]
(§2) To assess liver injury, alanine aminotransferase (ALT) was measured in serum samples using a commercially available kit (Sigma). TNF-α, IL-10, IL-4, IL-12, and IFN-γ levels in serum and cell culture supernatant were determined by Enzyme-linked immunosorbent assay (ELISA). […]

[2] = tested on: liver CD4+ and CD8+ T cells; experiment: Flow cytometry of liver T cells after transplantation; type: in vivo, rat; settings: for CD3+CD4+ relative number of T cells in the liver / CD3+CD8+ relative number of T cells in the liver: mean ± SD
Experimental: as §1
Three hours or 24 hours after liver transplantation, transplanted liver were perfused with sterile PBS through the portal vein to wash out all remaining peripheral blood and then meshed with stainless steel mesh. After the coarse pieces were removed by centrifugation at 50 g for 1 min, the cell suspensions were again centrifuged, resuspended in 8 mL of 45% Percoll (Sigma), and layered on 5 mL of 67.5% Percoll. The gradients were centrifuged at 600 g at 20° C. for 20 min. Lymphocytes at the interface were harvested and washed twice with PBS. CD4^+ or CD8^+ T cells were purified by Rat T cell CD4 or CD8 column kit (R&D systems, Minneapolis, […].) from the harvested liver lymphocytes. The purity of sorted cells was more than 95%.
For 3-color analysis, liver lymphocytes were incubated with saturating amounts of phycoerythrin-conjugated anti-rat CD3α mAb (Pharmingen, San Diego, Calif.) and fluorescein isothiocyanate-conjugated anti-rat CD4 mAb (Pharmingen) for 30 min. Cells were analyzed with a FACSCalibur flow cytometer (Becton Dickinson, San Jose, Calif.). We carefully gated cells by forward and side light scattering for the liver lymphocytes. The data were analyzed using CyQuest software (Becton Dickinson).

HSP72 and HO-1 = experiment: Western blot of HSP72 and HO-1 in hepatocytes, CD4+ and CD8+ T cells of donor fatty liver; type: in vivo, rat; settings: at time of harvesting; GdCl3 20 mg/kg i.v. 48 and 24 hours before harvesting
Experimental: as §1
Donor rats were sacrificed up to 240 hours after HPc. […] Protein signals were visualized by chemiluminescence (Pierce, Rockford, Ill.) and recorded on a GS282 Scanner (BioRad, Hercules, Calif.).

[3] = tested on: IL-12p70, TNF-α and IL-10; experiment: Serum cytokine levels (ELISA) after fatty liver transplantation; type: in vivo, rat; settings: donor GdCl3 pretreatment
Experimental: as §1, with “In the Sham and HPc groups, sterile nonpyrogenic saline was used as instead of GdCl3 solution. Donor livers were harvested 24 hours after HPc or sham HPc. In some experiments, rats were pretreated with 5 mg/kg i.m. Cyclosporine A (CyA; Sigma) 6 hours before donor liver harvesting.” left out
(§3) Isogenic orthotopic liver transplantation was performed as described by Kamada and Calne (Kamada et al., Transplantation 28:47-50, 1979). […] For survival studies, the animals were returned to standard housing facilities and monitored for up to one week. […]
as §2

liver CD4+ T cells = experiment: IFN-γ production by liver CD4+ T cells on anti-CD3 mAb-coated plates (ELISA); type: cell-based, rat; settings: 24 hours after transplantation; donor GdCl3 pretreatment
Experimental: as §1
Liver lymphocytes were obtained by the same method previously described. […] IFN-γ and IL-4 levels in the culture supernatants were determined by ELISA.

[4] = tested on: transplanted fatty livers; experiment: Histology of transplanted fatty livers; type: in vivo, rat; settings: 3 hours after transplantation, compared to Sham group livers
Experimental: as §1, with “In some experiments, rats were pretreated with 5 mg/kg i.m. Cyclosporine A (CyA; Sigma) 6 hours before donor liver harvesting.” left out
as §3

[5] = tested on: intrahepatic neutrophil accumulation; experiment: Myeloperoxidase content of liver tissue (neutrophil accumulation) after transplantation; type: in vivo, rat
Experimental: Donor animals were divided into three groups; heat shock preconditioning (HPc) group, sham HPc (Sham) group, and gadolinium chloride (GdCl3) group. In the HPc group, rats were anesthetized and placed in a waterproof bag that was then immersed in a 43° C. water bath to elevate the core body temperature (measured via a rectal digital thermometer) to 42-42.5° C. Animals were maintained at that temperature for 10 min and then removed from the warm bath. Animals then received 10 ml/kg intraperitoneal saline injection and were allowed to recover with free access to food and water. Animals in the Sham and GdCl3 groups underwent the same procedures except that they were immersed in a 37° C. bath (sham HPc). […]
as §3
The presence of myeloperoxidase (MPO), enzyme specific for neutrophil (and some macrophages), was used as an index of intrahepatic neutrophil accumulation. […] The change in absorbance was measured by spectrophotometry at 450 nm. One unit of MPO activity was defined as the quantity of enzyme degrading 1 μM peroxide per minute at 25° C. per gram of tissue.

recipient rats = experiment: Survival of recipient rats after fatty liver transplantation; type: in vivo, rat; settings: up to 1 week after transplantation, vs Sham group
Experimental: as §1, with “In some experiments, rats were pretreated with 5 mg/kg i.m. Cyclosporine A (CyA; Sigma) 6 hours before donor liver harvesting.” left out
as §3

Molecule	effect on the defatting process (fat reduction) (steatotic hepatocytes)	effect on the defatting process (lipid removal) (steatotic hepatocytes)	expression level of IFN-γ mRNA in isolated CD3+ CD4+ cells (IFN-γ mRNA)	expression level of IFN-γ mRNA in isolated CD3+ CD8+ cells (IFN-γ mRNA)	serum ALT levels ([1]; 3 hours after transplantation, 12 hours cold preservation)	liver injury ([1]; 24 hours after transplantation)	protection against I/R injury by phase ([1]; acute (3 hours) and subacute (24 hours) phase)	CD3+CD4+ relative number of T cells in the liver ([2]; 3 hr after transplantation)	CD3+CD8+ relative number of T cells in the liver ([2]; 3 hr after transplantation)	CD3+CD4+ relative number of T cells in the liver ([2]; 24 hr after transplantation)	CD3+CD8+ relative number of T cells in the liver ([2]; 24 hr after transplantation)	numbers of CD3+ CD8+ cells in the liver between groups ([2]; any stage following transplantation)	HSP72 and HO-1 expression in hepatocytes, CD4+ and CD8+ T cells (HSP72 and HO-1)	serum IL-12, TNF-α and IL-10 levels ([3]; 3 hours after transplantation)	serum TNF-α levels ([3]; 24 hours after transplantation)	IFN-γ production by liver CD4+ T cells (liver CD4+ T cells)	hemorrhagic injury (histology) [4]	MPO levels of liver tissue ([5]; 3 hours after transplantation)	MPO levels of liver tissue / neutrophil accumulation ([5]; 24 hours after transplantation)	recipient survival rate (recipient rats)
leptin	Some fat-reducing effects were seen	did not further enhance lipid removal																		
[Cl][Gd]([Cl])[Cl] [GdCl3, gadolinium chloride]			much higher than that from HPc group	remained low in all three groups	significantly lower than that of Sham group	did not suppress liver injury	only protected I/R injury in the acute phase	8.4 ± 2.7 ×10^5	4.2 ± 1.2 ×10^5	7.2 ± 2.2 ×10^5	5.6 ± 2.3 ×10^5	no difference	neither HSP72 nor HO-1 was detected	moderated the initial increase in IL-12, TNF-α, and IL-10 significantly; also recorded: suppressed; also recorded: prevented the serum release of IL-12, TNF-α, and IL-10	not significantly different from that of liver controls	did not suppress activation of or IFN-γ production	reduced hemorrhagic injury	almost similar with no significant difference	no difference between the Sham group and the GdCl3-treated group; also recorded: did not suppress liver injury or neutrophil accumulation	no significant difference; also recorded: did not improve the recipient survival rate
hepatocyte growth factor	Some fat-reducing effects were seen	did not further enhance lipid removal																		

From patent US20060166360A1, “Compositions, solutions, and methods used for transplantation” (The General Hospital Corporation, priority 2002, published 2006)
